Source: the supplement of paper PMC11208160

Experiment: recombinant UMI read abundance after kanamycin selection (control-corrected) (log10(CPM+1)); higher = more efficient recombination; extreme values may be limits of the assay; sequences stand for … in AGTGCAGAGAAAATCGGCCAGTTTTCTCTGCCTGCAGTCCGCATGCCGTGGGACCCCTTGGGTTCTAACCTGTTGCCTAGATTTATGCAGCGGACTGCCTTTCTCCCAAAGTGATAAACCGG…AGGTTGGTTTCACT; site = the 11-nt donor
In short: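 Each donor and donor-binding-loop pair was tracked by a 12-nt UMI on a plasmid carrying a promoterless kanamycin gene. With a second plasmid supplying a fixed target and T7-inducible IS621 bridge recombinase, the pool was plated in Escherichia coli on IPTG (0.07 mM) plus kanamycin or unselected. Sequencing of recombinant UMIs across the donor–target junction gave counts expressed as log10(CPM+1) after replicate averaging and control-derived scaling.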
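Also: IS621 bridge recombinase in Escherichia coli cells against a fixed T5 target plasmid.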

| Sequence | recombinant UMI read abundance (log10) |
| --- | --- |
| AGAGTATCATGGACCGGTTTTCCCGGTAATCCGTATTTGCA (site AAAGTATCTTG) | 2.57 |
| AGAGTATCATGGACCGGTTTTCCCGGTAATCCGTATTTGCA (site ACAGTATCTTG) | 2.7 |
| AGAGTATCATGGACCGGTTTTCCCGGTAATCCGTATTTGCA (site AGAGTATCTTG) | 3.29 |
| AGAGTATCATGGACCGGTTTTCCCGGTAATCCGTATTTGCA (site ATAGTATCTTG) | 1.83 |
| AGAGTATCATGGACCGGTTTTCCCGGTAATCCGTATTTGCC (site ACAGTATCTTG) | 0 |
| AGAGTATCATGGACCGGTTTTCCCGGTAATCCGTATTTGCC (site AGAGTATCTGG) | 2.98 |
| AGAGTCACATGGACCGGTTTTCCCGGTAATCCGTATTTGAG (site AGAGTCACTCT) | 2.34 |
| AGAGTGCCATGGACCGGTTTTCCCGGTAATCCGTATTTGGG (site AGAGTGCCTCC) | 0.0257 |
| AGATAATCATGGACCGGTTTTCCCGGTAATCCGTATTTGCG (site AGATAATCTCG) | 2.61 |
| AGATAGACATGGACCGGTTTTCCCGGTAATCCGTATTTGCC (site AGATAGACTGG) | 3.03 |
| AGATAGACATGGACCGGTTTTCCCGGTAATCCGTATTTGCC (site CGATAGACTGG) | 1.36 |
| AGATAGACATGGACCGGTTTTCCCGGTAATCCGTATTTGCC (site GGATAGACTGG) | 1.35 |
| AGATAGACATGGACCGGTTTTCCCGGTAATCCGTATTTGCC (site TGATAGACTGG) | 2.34 |
| AGATAGGCATGGACCGGTTTTCCCGGTAATCCGTATTTGCT (site AGAAAGGCTAG) | 0.622 |
| AGATAGGCATGGACCGGTTTTCCCGGTAATCCGTATTTGCT (site AGACAGGCTAG) | 2.12 |
| AGATAGGCATGGACCGGTTTTCCCGGTAATCCGTATTTGCT (site AGAGAGGCTAG) | 0.862 |
| AGATAGGCATGGACCGGTTTTCCCGGTAATCCGTATTTGCT (site AGATAGGCTAG) | 2.66 |
| AGATAGGCATGGACCGGTTTTCCCGGTAATCCGTATTTGTA (site AGATAGGCTTA) | 2.52 |
| AGATCCCCATGGACCGGTTTTCCCGGTAATCCGTATTTGTA (site AGATCCCCTTA) | 0.595 |
| AGATGAGCATGGACCGGTTTTCCCGGTAATCCGTATTTGCA (site AGATGAGCTTG) | 2.71 |
| AGATGTTCATGGACCGGTTTTCCCGGTAATCCGTATTTGTT (site AGATGTTCTAA) | 1.45 |
| AGATTAGCATGGACCGGTTTTCCCGGTAATCCGTATTTGAT (site AGATTAGCTAT) | 2.09 |
| AGCAACGCATGGACCGGTTTTCCCGGTAATCCGTATTTGTG (site AGCAACGCTCA) | 1.36 |

| Sequence | recombinant UMI read abundance (log10) |
| --- | --- |
| AGCAATACATGGACCGGTTTTCCCGGTAATCCGTATTTGCA (site AGCAATACTTG) | 1.73 |
| AGCAATACATGGACCGGTTTTCCCGGTAATCCGTATTTGCA (site AGGAAGACTTG) | 0 |
| AGCACGGCATGGACCGGTTTTCCCGGTAATCCGTATTTGCT (site AGCACGGCTAG) | 1.9 |
| AGCACTACATGGACCGGTTTTCCCGGTAATCCGTATTTGAC (site AGAACTACTGT) | 1.25 |
| AGCACTACATGGACCGGTTTTCCCGGTAATCCGTATTTGAC (site AGCACTACTGT) | 1.85 |
| AGCACTACATGGACCGGTTTTCCCGGTAATCCGTATTTGAC (site AGGACTACTGT) | 0.927 |
| AGCACTACATGGACCGGTTTTCCCGGTAATCCGTATTTGAC (site AGTACTACTGT) | 0.741 |
| AGCATCCCATGGACCGGTTTTCCCGGTAATCCGTATTTGGC (site AGCATCCCTGC) | 1.74 |
| AGCCAAGCATGGACCGGTTTTCCCGGTAATCCGTATTTGAG (site AACCAAGCTCT) | 0.0428 |
| AGCCAAGCATGGACCGGTTTTCCCGGTAATCCGTATTTGAG (site ACCCAAGCTCT) | 0.641 |
| AGCCAAGCATGGACCGGTTTTCCCGGTAATCCGTATTTGAG (site AGCCAAGCTCT) | 1.3 |
| AGCCAAGCATGGACCGGTTTTCCCGGTAATCCGTATTTGAG (site ATCCAAGCTCT) | 0.655 |
| AGCCGCTCATGGACCGGTTTTCCCGGTAATCCGTATTTGAT (site AGCCGCTCTAT) | 1.65 |
| AGCCGTCCATGGACCGGTTTTCCCGGTAATCCGTATTTGAT (site AACCGTCCTAT) | 0.00909 |
| AGCCGTCCATGGACCGGTTTTCCCGGTAATCCGTATTTGAT (site ACCCGTCCTAT) | 0 |
| AGCCGTCCATGGACCGGTTTTCCCGGTAATCCGTATTTGAT (site AGCCGTCCTAT) | 1.09 |
| AGCCGTCCATGGACCGGTTTTCCCGGTAATCCGTATTTGAT (site ATCCGTCCTAT) | 0.0112 |
| AGCCTCTCATGGACCGGTTTTCCCGGTAATCCGTATTTGAC (site AGCCTATCTGT) | 0 |
| AGCCTCTCATGGACCGGTTTTCCCGGTAATCCGTATTTGAC (site AGCCTCTCTGT) | 0 |
| AGCCTCTCATGGACCGGTTTTCCCGGTAATCCGTATTTGAC (site AGCCTGTCTGT) | 0 |
| AGCCTCTCATGGACCGGTTTTCCCGGTAATCCGTATTTGAC (site AGCCTTTCTGT) | 0 |
| AGCCTTACATGGACCGGTTTTCCCGGTAATCCGTATTTGAC (site AGCCTTACTGT) | 2.52 |
| AGCCTTACATGGACCGGTTTTCCCGGTAATCCGTATTTGAC (site AGCCTTCCTGT) | 0 |

| Sequence | recombinant UMI read abundance (log10) |
| --- | --- |
| AGCCTTACATGGACCGGTTTTCCCGGTAATCCGTATTTGAC (site AGCCTTGCTGT) | 0 |
| AGCCTTACATGGACCGGTTTTCCCGGTAATCCGTATTTGAC (site AGCCTTTCTGT) | 0 |
| AGCCTTGCATGGACCGGTTTTCCCGGTAATCCGTATTTGTA (site AGCCTTGCTTA) | 0.019 |
| AGCCTTTCATGGACCGGTTTTCCCGGTAATCCGTATTTGGC (site AGCCTTTCTGA) | 0 |
| AGCCTTTCATGGACCGGTTTTCCCGGTAATCCGTATTTGGC (site AGCCTTTCTGC) | 0 |
| AGCCTTTCATGGACCGGTTTTCCCGGTAATCCGTATTTGGC (site AGCCTTTCTGG) | 0 |
| AGCCTTTCATGGACCGGTTTTCCCGGTAATCCGTATTTGGC (site AGCCTTTCTGT) | 0 |
| AGCGAGCCATGGACCGGTTTTCCCGGTAATCCGTATTTGTA (site AGCGAGCCTTA) | 0.53 |
| AGCGAGCCATGGACCGGTTTTCCCGGTAATCCGTATTTGTT (site AGCGAGCCTAA) | 0.501 |
| AGCGGATCATGGACCGGTTTTCCCGGTAATCCGTATTTGAG (site AGCGGATCTCT) | 2.33 |
| AGCGTGGCATGGACCGGTTTTCCCGGTAATCCGTATTTGGG (site AGCGTGGCTCC) | 0.277 |
| AGCGTTTCATGGACCGGTTTTCCCGGTAATCCGTATTTGAC (site AGCATTTCTGT) | 0 |
| AGCGTTTCATGGACCGGTTTTCCCGGTAATCCGTATTTGAC (site AGCCTTTCTGT) | 0 |
| AGCGTTTCATGGACCGGTTTTCCCGGTAATCCGTATTTGAC (site AGCGTTTCTGT) | 2.63 |
| AGCGTTTCATGGACCGGTTTTCCCGGTAATCCGTATTTGAC (site AGCTTTTCTGT) | 0.136 |
| AGCTACGCATGGACCGGTTTTCCCGGTAATCCGTATTTGTC (site AGCTACGCTGA) | 2.27 |
| AGCTAGACATGGACCGGTTTTCCCGGTAATCCGTATTTGGG (site AACTAGACTCC) | 0.0198 |
| AGCTAGACATGGACCGGTTTTCCCGGTAATCCGTATTTGGG (site ACCTAGACTCC) | 0.239 |
| AGCTAGACATGGACCGGTTTTCCCGGTAATCCGTATTTGGG (site AGCTAGACTCC) | 0.0244 |
| AGCTAGACATGGACCGGTTTTCCCGGTAATCCGTATTTGGG (site ATCTAGACTCC) | 0.0227 |
| AGCTATTCATGGACCGGTTTTCCCGGTAATCCGTATTTGGC (site AGCTATTCTGC) | 0.69 |
| AGCTCAGCATGGACCGGTTTTCCCGGTAATCCGTATTTGCG (site AGCTCAGCTCA) | 0.0116 |
